The assay deals with T1, PACAP-R3 (Homo sapiens, UniProt P41587).
T1 sequence (P41587 24-438): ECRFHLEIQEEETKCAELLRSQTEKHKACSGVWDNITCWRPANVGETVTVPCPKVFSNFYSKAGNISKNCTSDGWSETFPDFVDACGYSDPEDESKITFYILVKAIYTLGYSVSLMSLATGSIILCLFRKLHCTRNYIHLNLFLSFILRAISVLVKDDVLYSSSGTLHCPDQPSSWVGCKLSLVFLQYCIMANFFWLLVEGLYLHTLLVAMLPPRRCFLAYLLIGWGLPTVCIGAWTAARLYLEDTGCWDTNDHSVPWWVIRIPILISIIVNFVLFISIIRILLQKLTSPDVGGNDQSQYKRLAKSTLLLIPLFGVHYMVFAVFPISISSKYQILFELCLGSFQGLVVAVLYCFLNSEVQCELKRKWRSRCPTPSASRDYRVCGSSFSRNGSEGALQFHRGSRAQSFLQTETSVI
In words: Cyclic AMP SPA on CHO cells expressing PACAP R3. The format is cell-based. More on the design: expressed in transfected cells; host or cells: CHO cells (Geneticin selection). Conditions: for R3 Selectivity: ratio of EC50 at R2 versus EC50 at R3. As for the experimental part:
CHO cells expressing the PACAP R3 were plated in 96-well plates (Costar) at 8×10^4 cell/well and grown at 37 C. for 24 hours in α MEM+nucleosides+glutamine (Giobco BRL), 10% FBS, 100 μg/ml Pen/Strep, 0.3 mg/ml glutamine, 1 mM HEPES, 0.5 mg/ml Geneticin (Gibco BRL). The media was removed and the plates were washed with PBS. The cells were incubated with a peptide, in Hepes-PBS-BSA with 0.4 mg/mlSoybean Trypsin Inhibitor, 0.5 mg/ml Bacitracin, 100 uM IBMX, for 15 min at 37 C. Cyclic AMP in the cell extracts was quantitated using the cAMP SPA direct screening assay system (Amersham Pharmacia Biotech Inc, Piscataway, N.J.,). The peptides shown in Table 3 were assayed for cAMP activity.
EC50 is defined as the concentration of the polypeptide at which 50% of maximum PACAP27 activity is achieved. “NA” denotes no detectable activities. “R3 Selectivity” is derived from the ratio of EC50 at R2 versus EC50 at R3.

The mark [1] stands for this setting: cAMP SPA, CHO cells transfected with PACAP-R3, concentration at which 50% of maximum PACAP27 activity is achieved, NA = no detectable activities, read-out: R3 EC50.

Read-outs that look alike come from different tables or passages of the source. No end group written: not given here.

As to `CC[C@H](C)[C@H](NC(=O)CNC(=O)[C@H](CC(=O)O)NC(=O)[C@H](CO)NC(=O)[C@@H](N)Cc1c[nH]cn1)C(=O)N[C@@H](Cc1ccccc1)C(=O)N[C@H](C(=O)N[C@@H](CC(=O)O)C(=O)N[C@@H](CO)C(=O)N[C@@H](CCCCN)C(=O)N[C@@H](CO)C(=O)N[C@@H](CCCNC(=N)N)C(=O)N[C@@H](Cc1ccc(O)cc1)C(=O)N[C@@H](CCCNC(=N)N)C(=O)N[C@@H](CCCCN)C(=O)N[C@@H](CCC(N)=O)C(=O)N[C@@H](CCSC)C(=O)N[C@@H](C)C(=O)N[C@H](C(=O)N[C@@H](CCCCN)C(=O)N[C@@H](CCCCN)C(=O)N[C@@H](Cc1ccc(O)cc1)C(=O)N[C@@H](CC(C)C)C(=O)N[C@@H](C)C(=O)N[C@@H](C)C(=O)N[C@H](C(=O)N[C@@H](CC(C)C)C(N)=O)C(C)C)C(C)C)[C@@H](C)O` [PAC10], the “R3 Selectivity” value was determined as 4.
As a reminder, the EC50 is the midpoint of the concentration-response curve. For the molecule “H-HSDAVFTDNYTRLRKQMAGKKYLNSIQNRI-OH [rR3P185]”, the “R3 Selectivity” value is given as 40. In addition, under setting [1], the EC50 turned out to be 4.5 nM.
`CC[C@H](C)[C@H](NC(=O)[C@@H](NC(=O)[C@H](CC(N)=O)NC(=O)[C@H](CC(C)C)NC(=O)[C@H](Cc1ccc(O)cc1)NC(=O)[C@H](CCCCN)NC(=O)[C@H](CCCCN)NC(=O)[C@H](C)NC(=O)[C@H](C)NC(=O)[C@H](CCSC)NC(=O)[C@H](CCC(N)=O)NC(=O)[C@H](CCCCN)NC(=O)[C@H](CCCNC(=N)N)NC(=O)[C@H](CC(C)C)NC(=O)[C@H](CCCNC(=N)N)NC(=O)[C@@H](NC(=O)[C@H](Cc1ccc(O)cc1)NC(=O)[C@H](CC(N)=O)NC(=O)[C@H](CC(=O)O)NC(=O)[C@@H](NC(=O)[C@H](Cc1ccccc1)NC(=O)[C@@H](NC(=O)[C@H](C)NC(=O)[C@H](CC(=O)O)NC(=O)[C@H](CO)NC(=O)[C@@H](N)Cc1c[nH]cn1)C(C)C)[C@@H](C)O)[C@@H](C)O)[C@@H](C)O)C(=O)N[C@@H](CCCCN)C(=O)N[C@@H](CC(N)=O)C(=O)N[C@@H](CCCCN)C(=O)N[C@@H](CCCNC(=N)N)C(=O)N[C@@H](Cc1ccc(O)cc1)C(=O)O` [Peptide R3P70]: the 50% effective concentration (EC50) under setting [1] worked out at 0.4 nM.
On to “HSDAVFTDDYTRLRKEVAAKKYLESIKDKRY [Peptide R3P173]”, for which a half-maximal response (EC50) required 200 nM.
Consider `CC[C@H](C)[C@H](NC(=O)CNC(=O)[C@H](CC(=O)O)NC(=O)[C@H](CO)NC(=O)[C@@H](N)Cc1c[nH]cn1)C(=O)N[C@@H](Cc1ccccc1)C(=O)N[C@H](C(=O)N[C@@H](CC(=O)O)C(=O)N[C@@H](CO)C(=O)N[C@@H](Cc1ccc(O)cc1)C(=O)N[C@@H](CO)C(=O)N[C@@H](CCCNC(=N)N)C(=O)N[C@@H](Cc1ccc(O)cc1)C(=O)N[C@@H](CCCNC(=N)N)C(=O)N[C@@H](CCCCN)C(=O)N[C@@H](CCC(N)=O)C(=O)N[C@@H](CCSC)C(=O)N[C@@H](C)C(=O)N[C@H](C(=O)N[C@@H](CCCCN)C(=O)N[C@@H](CCCCN)C(=O)N[C@@H](Cc1ccc(O)cc1)C(=O)N[C@@H](CC(C)C)C(=O)N[C@@H](C)C(=O)N[C@@H](C)C(=O)N[C@H](C(=O)N[C@@H](CCCCN)C(=O)N[C@@H](CCCCN)C(=O)O)C(C)C)C(C)C)[C@@H](C)O` [Peptide R3P40], for which the EC50 under setting [1] was 0.7 nM.
On to `CC[C@H](C)[C@H](NC(=O)[C@H](CO)NC(=O)[C@H](CCC(N)=O)NC(=O)[C@H](CC(C)C)NC(=O)[C@H](Cc1ccc(O)cc1)NC(=O)[C@H](CCCCN)NC(=O)[C@H](CCCCN)NC(=O)[C@H](C)NC(=O)[C@H](C)NC(=O)[C@@H](NC(=O)[C@H](CCC(N)=O)NC(=O)[C@H](CCCCN)NC(=O)[C@H](CCCNC(=N)N)NC(=O)[C@H](CC(C)C)NC(=O)[C@H](CCCNC(=N)N)NC(=O)[C@@H](NC(=O)[C@H](Cc1ccc(O)cc1)NC(=O)[C@H](CC(N)=O)NC(=O)[C@H](CC(=O)O)NC(=O)[C@@H](NC(=O)[C@H](Cc1ccccc1)NC(=O)[C@@H](NC(=O)[C@H](C)NC(=O)[C@H](CC(=O)O)NC(=O)[C@H](CO)NC(=O)[C@@H](N)Cc1c[nH]cn1)C(C)C)[C@@H](C)O)[C@@H](C)O)C(C)C)C(=O)N[C@@H](CC(C)C)C(=O)N[C@@H](CCCCN)C(=O)N[C@@H](CCCCN)C(=O)N[C@@H](CCCNC(=N)N)C(=O)N[C@@H](Cc1ccc(O)cc1)C(=O)O` [Peptide R3P83], for which the EC50 under setting [1] turned out to be 0.08 nM.
For the molecule `CC[C@H](C)[C@H](NC(=O)CNC(=O)[C@H](CC(=O)O)NC(=O)[C@H](CO)NC(=O)[C@@H](N)Cc1c[nH]cn1)C(=O)N[C@@H](Cc1ccccc1)C(=O)N[C@H](C(=O)N[C@@H](CC(=O)O)C(=O)N[C@@H](CO)C(=O)N[C@@H](Cc1ccc(O)cc1)C(=O)N[C@@H](CO)C(=O)N[C@@H](CCCNC(=N)N)C(=O)N[C@@H](Cc1ccc(O)cc1)C(=O)N[C@@H](CCCNC(=N)N)C(=O)N[C@@H](CCCCN)C(=O)N[C@@H](CCC(N)=O)C(=O)N[C@@H](CC(C)C)C(=O)N[C@@H](C)C(=O)N[C@H](C(=O)N[C@@H](CCCCN)C(=O)N[C@@H](CCCCN)C(=O)N[C@@H](Cc1ccc(O)cc1)C(=O)N[C@@H](CC(C)C)C(=O)N[C@@H](C)C(=O)N[C@@H](C)C(=O)N[C@H](C(=O)N[C@@H](CCCCN)C(=O)N[C@@H](CCCCN)C(=O)O)C(C)C)C(C)C)[C@@H](C)O` [Peptide R3P39], the EC50 under setting [1] was determined as 0.5 nM.
“H-HSDAVFTDNYTRLRKQMAAKKYLNSIGNKR-OH [Peptide R3P121]”: the “R3 Selectivity” value is listed as 50. In addition, the EC50 under setting [1] was found to be 1 nM.
As for `CC[C@H](C)[C@H](NC(=O)[C@H](CO)NC(=O)[C@H](CC(N)=O)NC(=O)[C@H](CC(C)C)NC(=O)[C@H](Cc1ccc(O)cc1)NC(=O)[C@H](CCCCN)NC(=O)[C@H](CCCCN)NC(=O)[C@H](CC(C)C)NC(=O)[C@H](C)NC(=O)[C@H](CCSC)NC(=O)[C@H](CCC(N)=O)NC(=O)[C@H](CCCCN)NC(=O)[C@H](CCCNC(=N)N)NC(=O)[C@H](CC(C)C)NC(=O)[C@H](CCCNC(=N)N)NC(=O)[C@@H](NC(=O)[C@H](Cc1ccc(O)cc1)NC(=O)[C@H](CC(N)=O)NC(=O)[C@H](CC(=O)O)NC(=O)[C@@H](NC(=O)[C@H](Cc1ccccc1)NC(=O)[C@@H](NC(=O)[C@H](C)NC(=O)[C@H](CC(=O)O)NC(=O)[C@H](CO)NC(=O)[C@@H](N)Cc1c[nH]cn1)C(C)C)[C@@H](C)O)[C@@H](C)O)C(=O)N[C@@H](CCCCN)C(=O)N[C@@H](CC(N)=O)C(=O)N[C@@H](CCCCN)C(=O)N[C@@H](CCCNC(=N)N)C(=O)O` [Peptide R3P105], the EC50 under setting [1] amounted to 0.3 nM.
On the same count and under the same terms, next, `CSCC[C@H](NC(=O)[C@H](CCC(N)=O)NC(=O)[C@H](CCCCN)NC(=O)[C@H](CCCNC(=N)N)NC(=O)[C@H](Cc1ccc(O)cc1)NC(=O)[C@H](CCCNC(=N)N)NC(=O)[C@H](CO)NC(=O)[C@H](Cc1ccc(O)cc1)NC(=O)[C@H](CO)NC(=O)[C@H](CC(=O)O)NC(=O)[C@@H](NC(=O)[C@H](Cc1ccccc1)NC(=O)[C@H](CCCCN)NC(=O)CNC(=O)[C@H](CC(=O)O)NC(=O)[C@H](CO)NC(=O)[C@@H](N)Cc1c[nH]cn1)[C@@H](C)O)C(=O)N[C@@H](C)C(=O)N[C@H](C(=O)N[C@@H](CCCCN)C(=O)N[C@@H](CCCCN)C(=O)N[C@@H](Cc1ccc(O)cc1)C(=O)N[C@@H](CC(C)C)C(=O)N[C@@H](C)C(=O)N[C@@H](C)C(=O)N[C@H](C(=O)N[C@@H](CC(C)C)C(N)=O)C(C)C)C(C)C` [PAC5]: 0.7 nM; “Ac-HSDAVFTENYTKLRKQLAAKKYLNDLKKGGT [Peptide R3P2]”: 3 nM.
“HSDAVFTDNYTRLRKQMAQKKYLNSIKNKR [Peptide R3P109]”: the “R3 Selectivity” value stood at 100. The EC50 under setting [1] turned out to be 10 nM.
On the same counts, the results for “H-HSDAVFTDNYTRLRKQLAVKKYLNDIKKGGT-OH [Peptide R3P21]” are 60 and 0.3 nM.
Regarding `CC[C@H](C)[C@H](NC(=O)[C@@H](NC(=O)[C@H](CC(N)=O)NC(=O)[C@H](CC(C)C)NC(=O)[C@H](Cc1ccc(O)cc1)NC(=O)[C@H](CCCCN)NC(=O)[C@H](CCCCN)NC(=O)[C@H](C)NC(=O)[C@H](C)NC(=O)[C@H](CC(C)C)NC(=O)[C@H](CCC(N)=O)NC(=O)[C@H](CCCCN)NC(=O)[C@H](CCCNC(=N)N)NC(=O)[C@H](CC(C)C)NC(=O)[C@H](CCCNC(=N)N)NC(=O)[C@@H](NC(=O)[C@H](Cc1ccc(O)cc1)NC(=O)[C@H](CC(N)=O)NC(=O)[C@H](CC(=O)O)NC(=O)[C@@H](NC(=O)[C@H](Cc1ccccc1)NC(=O)[C@@H](NC(=O)[C@H](C)NC(=O)[C@H](CC(=O)O)NC(=O)[C@H](CO)NC(=O)[C@@H](N)Cc1c[nH]cn1)C(C)C)[C@@H](C)O)[C@@H](C)O)[C@@H](C)O)C(=O)N[C@@H](CCCCN)C(=O)N[C@@H](CC(N)=O)C(=O)N[C@@H](CCCCN)C(=O)N[C@@H](CCCNC(=N)N)C(=O)N[C@@H](Cc1ccc(O)cc1)C(=O)O` [Peptide R3P67], the EC50 under setting [1] worked out at 0.3 nM.
In the case of HKDGIFTDSYSRYRKQMAVKKYLAAVL-NH2 [PAC2], the EC50 under setting [1] was found to be 34 nM.
